The values below come from patent publication US20250115577A1, “BCL-2 Inhibitors” (Eil Therapeutics, Inc., priority 2021, published 2025).

One data set concerns the target BCL-2 (Homo sapiens (Human), UniProt P10415). Description: BCL-2 TR-FRET Assay (primary PPI inhibition). Format: binding. The settings on record: 60 min incubation, read-out: BCL2 IC50. The method, then:
Example A. BCL-2 TR-FRET Assay (BPS Bioscience, #50222)
The following assay concentrations and times were used: 3 ng of BCL-2, 5 μL of 1:100 anti-His Tb-labeled donor, 5 μL of 1:100 Dye-labeled acceptor, 5 µL of 1:40 BCL-2 Peptide Ligand, and 2 μL of 200× test compound, with 60 min incubation time (final concentration of DMSO 0.5%). The results of the assay were read using a plate reader with the following parameters: TR FRET, 340ex/620 and 665em; 60 usec Delay; and 500 usec integration.
(§1) Instrumentation: CLARIOstar Plus (BMG LABTECH); Biomek FX for liquid handling (Beckman Coulter).
(In general: TR-FRET usually uses a lanthanide donor and a delayed reading to cut background.)

The next data set has as its target BCL-xL (Homo sapiens (Human), UniProt Q07817). Description: BCL-xL TR-FRET Assay (primary PPI inhibition). The settings on record: 60 min incubation, read-out: BCLxL IC50. In kind it is binding. The procedure: Example B. BCL-xL TR-FRET Assay (BPS Bioscience, #50223)
The following assay concentrations and times were used: 10.5 ng of BCL-xL, 5 μL of 1:120 anti-His Tb-labeled donor, 5 μL of 1:120 Dye-labeled acceptor, 5 μL of 1:96 BCL-xL Peptide Ligand, 2 μL of 200× test compound, with 60 min incubation time (final concentration of DMSO 0.5%). The results of the assay were read using a plate reader with the following parameters: TR FRET, 340ex/620 and 665em; 60 usec Delay; and 500 usec integration.
as §1

The target in another data set is BCL-2 [G101V] (Homo sapiens (Human), UniProt P10415, G101V). Description: BCL-2 [G101V] TR-FRET Assay (primary PPI inhibition). Conditions: 60 min incubation, read-out: BCL2[G101V] IC50. Format: binding. The method, then:
Example C. BCL-2 [G101V]TR-FRET Assay
The following assay concentrations and times were used: 0.22 ng/μl of BCL-2 (SinoBiological, #10195-H08E1), 5 μL of 1:100 anti-His Tb-labeled donor, 5 μL of 1:100 Dye-labeled acceptor, 5 μL of 1:40 BCL-2 Peptide Ligand (BPS Bioscience, #50223), and 2 μL of 200× test compound, with 60 min incubation time (final concentration of DMSO 0.5%). The results of the assay were read using a plate reader with the following parameters: TR FRET, 340ex/620 and 665em; 60 usec Delay; and 500 usec integration.
as §1

A further data set concerns RS4-11 cells. Description: Cell viability assay (CellTiter-Glo), RS4-11. In kind it is cell-based. The settings on record: Homo sapiens, RS4-11, 72 h, 3 days of incubation. The procedure: (§2) Example D. Cell Viability Assays (Cell lines HEK293, RS4-11, MOLT-4)
(§3) Cells were seeded at a density of 4000 cells per well in the 384-well clear bottom plate (Greiner Cat #781090) to the 45 μL total volume of either DMEM (PanEco, Cat #C420, for HEK293) or RPMI (PanEco, Cat #C330, for other cell lines) with 10% FBS(HyClone Cat #SV30160.03). Prior to adding compounds, the HEK293 cells were allowed to adhere overnight at 37° C. and 5% CO2. The 500× compounds solutions in DMSO(Sigma Cat #D2650) were dispersed into a 384-well compound plate (Diamond Well Plate, Axigen, Cat #P-384-120 SQ-C—S) including only DMSO control. The 1 μL aliquots of the 500× compounds from the compound plate were added to 49 μL of culture medium in the Dilution plate (Diamond Well Plate, Axigen, Cat #P-384-120 SQ-C—S), mixed and then the 5 μL aliquts of the 10× compound solutions were transferred to cells followed by centrifugation at 100 g for 1 min. Final DMSO concentration was 0.2%. After 3 days of incubation the 10 μL aliquots of CellTiter-Glo (Promega, CAT #G7572) were added to the cells, plate was centrifuged at 100 g for 1 min and the luminescence was measured on the CLARIOstar Plus (BMG LABTECH) instrument.
as §1

Data set [1] in a line: Cell viability assay (CellTiter-Glo), HEK293. The settings on record: human, HEK293 cells, 3 days of incubation. In kind it is cell-based. The procedure:
as §2, §3, §1
A general note: ATP-based viability assays read luminescence as a measure of living cells.

Another data set has as its system MOLT-4 cells. Description: Cell viability assay (CellTiter-Glo), MOLT-4. In kind it is cell-based. Conditions: Homo sapiens, 72 h, 3 days of incubation. The procedure:
as §2, §3, §1

Data set [2] deals with caspase-3 and -7 activities in RS4-11 cells. Description: Caspase-3/7 activation (Caspase-Glo 3/7) in RS4-11 cells. Format: cell-based. The settings on record: Homo sapiens, 3.5 h, read-out: Cas-3/7 EC50. The method, then: Example E. Caspase-3/7 Activation
Assay Principle: The Caspase-Glo 3/7 Assay is homogeneous, luminescent assay that measures caspase-3 and -7 activities. The assay provides a luminogenic caspase-3/7 substrate, which contains the tetrapeptide sequence DEVD, in a reagent optimized for caspase activity.
Assay Procedure: Incubate RS4-11 (ATCC, CRL-1873) cells in the 384-well white plate (Corning, #3570) with varying concentrations of test compounds for 3.5 h in a humidified incubator at 37° C. and 5% CO2 […]. Add 15 μL of the Caspase-Glo (Promega, #8212) reagent to each well and to incubate the plate for 30 min at rt. Read on the CLARIOstar Plus (BMG LABTECH) instrument.
as §1

Molecules are shown by their SMILES. Some results are limits rather than exact numbers.

Chain of BCL-xL (Q07817 whole entry): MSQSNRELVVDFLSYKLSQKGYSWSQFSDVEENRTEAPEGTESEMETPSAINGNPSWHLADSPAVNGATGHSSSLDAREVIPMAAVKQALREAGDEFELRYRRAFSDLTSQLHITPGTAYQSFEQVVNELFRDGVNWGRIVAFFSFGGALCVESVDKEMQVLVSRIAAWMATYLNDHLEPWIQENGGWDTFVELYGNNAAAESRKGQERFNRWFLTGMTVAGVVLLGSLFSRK

Usually IC50 stands for the point on the concentration scale where inhibition reaches its midpoint. For orientation: CC50 means the concentration giving 50% cytotoxicity. High values mean better tolerance by the cells, low ones harm at low concentration. With `COc1cccc(CN(C(=O)c2cc(-c3cc(S(C)(=O)=O)ccc3C(=O)N3Cc4ccccc4C[C@H]3CN3CCOCC3)n(C)c2C)c2ccc(O)cc2)c1C` [Compound 49, N-(4-hydroxyphenyl)-N-[(3-methoxy-2-methyl-phenyl)methyl]-1,2-dimethyl-5-[5-methylsulfonyl-2-[(3S)-3-(morpholinomethyl)-3,4-dihydro-1H-isoquinoline-2-carbonyl]phenyl]pyrrole-3-carboxamide], the IC50 is no more than 5 nM on BCL-2, 2000 to 5000 nM at BCL-xL and no more than 100 nM at BCL-2 [G101V]. Besides, the values for the CC50 in the data set on RS4-11 cells and with MOLT-4 cells were no more than 100 nM and 5000 to 10000 nM, respectively. Further, the 50% cytotoxic concentration (CC50) at 3 days in data set [1] was greater than 25000 nM.

With `N#Cc1ccccc1CN(C(=O)c1cc(-c2cc(Cl)ccc2C(=O)N2Cc3ccccc3C[C@H]2CN2CCOCC2)n2c1CCCC2)c1ccc(Cl)cc1` [Compound 1, 3-[5-chloro-2-[(3S)-3-(morpholinomethyl)-3,4-dihydro-1H-isoquinoline-2-carbonyl]phenyl]-N-(4-chlorophenyl)-N-[(2-cyanophenyl)methyl]-5,6,7,8-tetrahydroindolizine-1-carboxamide], the IC50 was greater than 50 nM on BCL-2, greater than 5000 nM on BCL-xL and greater than 1000 nM on BCL-2 [G101V]. For the same molecule, the EC50 in data set [2] was greater than 500 nM.

`COc1cccc(CN(C(=O)c2cc(-c3cc(Cl)c(F)cc3C(=O)N3Cc4ccccc4C[C@H]3CN3CCOCC3)n(C)c2C)c2ccc(O)cc2)c1C` [Compound 27, 5-[5-chloro-4-fluoro-2-[(3S)-3-(morpholinomethyl)-3,4-dihydro-1H-isoquinoline-2-carbonyl]phenyl]-N-(4-hydroxyphenyl)-N-[(3-methoxy-2-methyl-phenyl)methyl]-1,2-dimethyl-pyrrole-3-carboxamide]: the IC50 at BCL-2 lay within 10 to 50 nM; at BCL-xL it was 2000 to 5000 nM. Further, the cytotoxic concentration (CC50) in the data set on RS4-11 cells is 100 to 200 nM; in the data set with MOLT-4 cells it was no more than 5000 nM. In data set [1], the half-maximal cytotoxic concentration (CC50) at 3 days was greater than 25000 nM. The EC50 in data set [2] was 200 to 500 nM.

On to `COc1cccc(CN(C(=O)c2cc(-c3cc(Cl)c(OC(F)F)cc3C(=O)N3Cc4ccccc4C[C@H]3CN3CCOCC3)n(C)c2C)c2ccc(Cl)cc2)c1C` [Compound 32, 5-[5-chloro-4-(difluoromethoxy)-2-[(3S)-3-(morpholinomethyl)-3,4-dihydro-1H-isoquinoline-2-carbonyl]phenyl]-N-(4-chlorophenyl)-N-[(3-methoxy-2-methyl-phenyl)methyl]-1,2-dimethyl-pyrrole-3-carboxamide], for which the 50% inhibitory concentration (IC50) on BCL-2 was greater than 50 nM; on BCL-xL, 2000 to 5000 nM. Also, the half-maximal cytotoxic concentration (CC50) in the data set with RS4-11 cells was greater than 200 nM; in the data set with MOLT-4 cells, no more than 5000 nM. Further, the CC50 at 3 days in data set [1] is greater than 25000 nM. Besides, in data set [2], the EC50 was greater than 500 nM.

As to `COc1cccc(CN(C(=O)c2cc(-c3cc(C(F)F)c(Cl)cc3C(=O)N3Cc4ccccc4C[C@H]3CN3CCOCC3)n(C)c2C)c2ccc(C#N)cc2)c1C` [Compound 24, 5-[4-chloro-5-(difluoromethyl)-2-[(3S)-3-(morpholinomethyl)-3,4-dihydro-1H-isoquinoline-2-carbonyl]phenyl]-N-(4-cyanophenyl)-N-[(3-methoxy-2-methyl-phenyl)methyl]-1,2-dimethyl-pyrrole-3-carboxamide], the figures for the IC50 on BCL-2 and on BCL-xL were greater than 50 nM and 2000 to 5000 nM, respectively. Besides, the half-maximal cytotoxic concentration (CC50) in the data set with RS4-11 cells is greater than 200 nM; with MOLT-4 cells, greater than 10000 nM. The CC50 at 3 days in data set [1] was greater than 25000 nM. Further, the EC50 in data set [2] was greater than 500 nM.

For `COc1cccc(CN(C(=O)c2cc(-c3cc(Cl)ccc3C(=O)N3Cc4ccccc4C[C@H]3CN3CCOCC3)n3c2CCCC3)c2ccc(Cl)cc2)c1C` [Compound 2, 3-[5-chloro-2-[(3S)-3-(morpholinomethyl)-3,4-dihydro-1H-isoquinoline-2-carbonyl]phenyl]-N-(4-chlorophenyl)-N-[(3-methoxy-2-methyl-phenyl)methyl]-5,6,7,8-tetrahydroindolizine-1-carboxamide], the concentration for half-maximal inhibition (IC50) is 10 to 50 nM at BCL-2, greater than 5000 nM on BCL-xL and greater than 1000 nM on BCL-2 [G101V]. In addition, in data set [2], the EC50 was greater than 500 nM.

With `COc1ccccc1CN(C(=O)c1cc(-c2cc(C#N)ccc2C(=O)N2Cc3ccccc3C[C@H]2CN2CCOCC2)n(C)c1C)c1ccc(O)cc1` [Compound 55, 5-[5-cyano-2-[(3S)-3-(morpholinomethyl)-3,4-dihydro-1H-isoquinoline-2-carbonyl]phenyl]-N-(4-hydroxyphenyl)-N-[(2-methoxyphenyl)methyl]-1,2-dimethyl-pyrrole-3-carboxamide], the IC50 is 5 to 10 nM on BCL-2 and no more than 2000 nM at BCL-xL. For the same molecule, the CC50 with RS4-11 cells was 100 to 200 nM; in the data set with MOLT-4 cells it was no more than 5000 nM. The same molecule showed a CC50 at 3 days in data set [1] greater than 25000 nM. Further, the EC50 in data set [2] was 200 to 500 nM.

As to `COc1cccc(CN(C(=O)c2cc(-c3cc(NC(C)=O)ccc3C(=O)N3Cc4ccccc4C[C@H]3CN3CCOCC3)n(C)c2C)c2ccc(O)cc2)c1C` [Compound 48, 5-[5-acetamido-2-[(3S)-3-(morpholinomethyl)-3,4-dihydro-1H-isoquinoline-2-carbonyl]phenyl]-N-(4-hydroxyphenyl)-N-[(3-methoxy-2-methyl-phenyl)methyl]-1,2-dimethyl-pyrrole-3-carboxamide], the values for the IC50 at BCL-2, on BCL-xL and at BCL-2 [G101V] were 5 to 10 nM, 2000 to 5000 nM and 100 to 1000 nM, respectively.

Turning to `COc1cccc(CN(C(=O)c2cc(-c3ccc(OC(F)F)cc3C(=O)N3Cc4ccccc4C[C@H]3CN3CCOCC3)n(C)c2C)c2ccc(Cl)cc2)c1C` [Compound 12, N-(4-chlorophenyl)-5-[4-(difluoromethoxy)-2-[(3S)-3-(morpholinomethyl)-3,4-dihydro-1H-isoquinoline-2-carbonyl]phenyl]-N-[(3-methoxy-2-methyl-phenyl)methyl]-1,2-dimethyl-pyrrole-3-carboxamide], the half-maximal inhibitory concentration (IC50) at BCL-2 was greater than 50 nM; at BCL-xL it was 2000 to 5000 nM. Further, the figures for the CC50 in the data set on RS4-11 cells and in the data set on MOLT-4 cells were greater than 200 nM and no more than 5000 nM, respectively. This molecule showed a CC50 at 3 days in data set [1] greater than 25000 nM. In addition, the EC50 in data set [2] was greater than 500 nM.

Turning to `COc1cccc(CN(C(=O)c2cc(-c3cc(F)c(OC(F)F)cc3C(=O)N3Cc4ccccc4C[C@H]3CN3CCOCC3)n(C)c2C)c2ccc(Cl)cc2)c1C` [Compound 26, N-(4-chlorophenyl)-5-[4-(difluoromethoxy)-5-fluoro-2-[(3S)-3-(morpholinomethyl)-3,4-dihydro-1H-isoquinoline-2-carbonyl]phenyl]-N-[(3-methoxy-2-methyl-phenyl)methyl]-1,2-dimethyl-pyrrole-3-carboxamide], the IC50 at BCL-2 is greater than 50 nM; on BCL-xL, 2000 to 5000 nM. The 50% cytotoxic concentration (CC50) is greater than 200 nM with RS4-11 cells and no more than 5000 nM in the data set on MOLT-4 cells. The molecule also displayed a half-maximal cytotoxic concentration (CC50) at 3 days in data set [1] greater than 25000 nM. In addition, in data set [2], the EC50 is greater than 500 nM.
